# Laboratory results as given in US10106542B2, “Substituted 6,7-dihydropyrazolo[1,5-a]pyrazines as negative allosteric modulators of mGluR2 receptors” (Janssen Pharmaceutica NV, priority 2013, dated 2018).
# Legend:
# [1] = tested on: rat hippocampal brain slices; test: Reversal of mGluR2-agonism (LY-354740-depressed fEPSP) in hippocampal brain slices; type: cell-based
# From the text: 7) Reversal of mGluR2-Agonism in Hippocampal Brain Slices Introduction
# Electrophysiology recordings of field excitatory postsynaptic potentials (fEPSPs) in acute hippocampal brain slices represent a model for testing synaptic transmission and plasticity. The effect of Co. No. 1 on synaptic transmission and plasticity in dentate gyms synapses was investigated using this model.
# (§1) Recordings of fEPSPs were made from hippocampal brain slices using a multi-electrode array (MEA) biochip, and 3-dimensional-(3D) tip electrodes, according to a standard protocol. These recordings were used to monitor glutamate-mediated synaptic transmission (FIG. 4).
# [2] = tested on: rat hippocampal brain slices; test: Long-term potentiation in the dentate gyrus of hippocampal brain slices; type: cell-based; details: 10 μM
# Procedure: as §1
# Subsequently, the effects of Co. No. 1 on synaptic function using long-term potentiation (LTP) protocols in the dentate gyms (Goeldner et. al., Neuropharmacology 2013, 64, 337-346) were evaluated.
# Small magnitude LTP (110%) was induced using isolated glutamatergic-mediated fEPSP: trains of theta-burst stimulation that are known to induce LTP at these particular synapses were applied (Dinklo et al., J. Pharmacol. Exp. Ther. 2011, 336(2), 560-574). In the presence of 10 μM Co. No. 1, the magnitude of LTP was enhanced by 150% compared to baseline (p=0.005). […] At the end of the experiments, addition of 1 mM kynurenic acid to block glutamatergic neurotransmission, confirmed that the post-synaptic response is mediated by glutamate neurotransmission.
# [3] = tested on: Male Wiga Wistar rats; test: Reversal of LY-404039-induced decrease of palpebral opening in apomorphine-challenged rats; type: in vivo; details: Rattus norvegicus, reversal of LY-404039-induced decrease of palpebral opening (cumulative score >26) in apomorphine challenged rats
# Procedure: 6) Reversal of LY-404039-Induced Decrease of Palpebral Opening in Apomorphine-Challenged Rats.
# Male Wiga Wistar rats (Crl:WI; Charles River Germany; 220±40 g) were housed under standard laboratory conditions (21±2° C.; 50-65% relative humidity; light-dark cycle set at 12 h; lights on at 6.00 h) and fasted overnight prior to the start of the experiments (tap water remained available ad libitum). During the test period, they were housed in individual cages. The local Ethical Committee approved all studies in compliance with the Declaration of Helsinki. Palpebral opening was scored every 5 min over the first hour after injection of apomorphine (1.0 mg/kg, i.v.) in animals either pretreated or not pretreated with LY-404039 (2.5 mg/kg, s.c.) at 1 h prior to the apomorphine injection. The animals were also pretreated with test compound or solvent at a predefined interval before apomorphine challenge. The score system was: (5) exophthalmos, (4) wide open, (3) open for three-quarters, (2) half open, (1) open for one-quarter, (0) closed. The scores for palpebral opening were cumulated over the 60-min observation period. A cumulative palpebral opening score >26 was selected for drug-induced reversal of the LY-404039-induced decrease of palpebral opening (occurrence in 3.2% of control animals pretreated with LY-404039 (n=154) versus in 99.5% of control rats not pretreated with LY-404039 (n=6335)).
# In animals receiving apomorphine alone the median palpebral opening is 43 whereas in animals receiving apomorphine and LY-404039, the median palpebral opening is 17.
# [4] = tested on: Male Long Evans rats; test: V-maze test (PCP-disrupted visual-spatial working memory); type: in vivo, rat; details: p.o. 4 h before test
# From the text: The V-maze-test is a two-trial short term visual-spatial working memory task based on spontaneous exploration of a new and a familiar arm in a 2-arm maze (Embrechts et al. (2013) “Longitudinal characterization of the TauPS2APP mouse model of Alzheimer's disease in a two trial discrimination task of visuo-spatial recognition memory”, 45th European Brain and Behaviour Society Meeting 6-9 Sep. 2013, Munich, Abstract P202).
# Male Long Evans rats (Janvier, France, body weight 280 to 295 g) were group housed in enriched individually ventilated cages and habituated to environmental conditions for 5 days. After acclimatization, animals were single housed for 4 days until testing. During this period animals were handled for 2 min per day and received sham dosing once a day for 3 days prior to the test. The V-maze consisted of two arms (L×W×H: 70×10×30 cm) at a 90° angle to each other to form a V-shaped maze connected by guillotine doors to a center zone. […] The animal's exploration of each arm was automatically quantified using Ethovision XT 7.0 (Noldus, The Netherlands). […] The time spent in the familiar and new arm respectively during the choice session was recorded for 5 min.
# Co. No. 1 was evaluated in rats in a series of dose-response studies evaluating doses from 0.16 to 10 mg/kg. […]
# [5] = Ro-4-1284 interaction test in rats; type: in vivo, rat; details: rat, in vivo, po; read-out: ED50 effect on body temperature immediately before the injection of Ro-4-1284
# Procedure: (§2) 5) Ro-4-1284 Interaction Test in Rats The relative ability of Co. No. 1 to increase palpebral opening was also studied in rats challenged with another monoamines depleting agent, viz. Ro-4-1284 (1.25 mg/kg, s.c.). Effects on body temperature immediately before the injection of Ro-4-1284 were also measured. The cumulative palpebral opening score (every 5 min over a 1-h period) was used for evaluation. The median cumulative palpebral opening in solvent-pretreated control animals (n=70) was 18; a scores >25 occurred in only 1.4% of these control animals and was adopted as all-or-none criterion for drug-induced reversal of the Ro-4-1284-induced palpebral ptose. Co.
# [6] = tested on: rats; test: Ro-4-1284 interaction test in rats; type: in vivo, rat; details: Rattus norvegicus; p.o.; Ro-4-1284 1.25 mg/kg s.c.; cumulative score over 1 h; read-out: ED50 increase of palpebral opening to scores >25 (reversal of Ro-4-1284-induced palpebral ptose)
# Procedure: as §2
structure (smiles),measurement,setting,value
"Cc1cc(-c2cnn3c2C(=O)N(c2ccc(C(F)(F)F)cc2)C[C@@H]3C)ccn1 [compound 1, (7S)-7-Methyl-3-(2-methylpyridin-4-yl)-5-[4-(trifluoromethyl)phenyl]-6,7-dihydropyrazolo[1,5-a]pyrazin-4(5H)-one]",paired-pulse ratio (PPR),[1]; 10 μM Co. No. 1 after LY-354740 1 μM,decrease of the PPR
same,recovery of the LY-354740-induced depression of fEPSP,"[1]; 10 μM, fifteen min after application, LY-354740 1 μM, n=17 slices from 4 rats",80%
same,post-theta potentiation (PTP),"[2]; vehicle 120%, p=0.01, 22 slices from 4 SD rats",160%
same,magnitude of LTP compared to baseline,"[2]; weak theta-burst stimulation, p=0.005, control LTP 110%",150%
same,ED50,[3]; Route PO,0.45 mg/kg
same,ED50,[3]; Route SC,0.3 mg/kg
same,reversal effect against PCP observed up to the highest dose tested,[4]; PCP 0.75 mg/kg s.c.,≤ 10 mg/kg
same,doses at which PCP-challenged rats showed again a clear preference for the new arm,"[4]; PCP 0.75 mg/kg s.c. 30 min prior, doses 0.16 to 10 mg/kg evaluated",≥ 0.32 mg/kg
same,ED50,[5],> 10 mg/kg
same,ED50,[6],0.51 mg/kg
